Experimental data: US20240317732A1, “A NEW MOLECULAR SCAFFOLD FOR TARGETING HRPN13” (THE UNITED STATES OF AMERICA AS REPRESENTED BY THE …, priority 2021, published 2024)
Entries after “also recorded” stand apart in the source; their conditions may differ.

Tests used:
RPMI 8226 cells = experiment: MTT cell metabolism / cell viability assay in RPMI 8226; assay type: cell-based
Experimental: (§1) Since previous hRpn13-targeting molecules induce apoptosis in multiple myeloma and colon cancer cells we tested whether XL5 restricts the RPMI 8226 multiple myeloma and HCT116 colon cancer cell lines by measuring metabolism with an MTT (3-(4,5-dimethylthiazol-2-yl)-2,5-diphenyltetrazolium bromide) assay. Experiments were also conducted in parallel with a HCT116 colon cancer cell line in which the exon encoding hRpn13 C88 is deleted, named trRpn13; this cell line expresses a truncated hRpn13 protein with a defective Pru and inability to bind the proteasome28. RPMI 8226 and WT (wild-type) or trRpn13 HCT116 cells seeded at 8,000 and 4,000 cells per well were treated with varying concentrations of XL5 extending to 40 μM and compared to cells incubated with equivalent amounts of DMSO vehicle control.
(§2) HCT116 WT or trRpn13 cells were seeded at 4,000 cells/well whereas RPMI 8226 cells were seeded at 8,000 cells/well with RPMI 1640 medium (no phenol red, Thermo Fisher Scientific 11835030) containing 2% fetal bovine serum in 96-well plates. Cells were treated with 0.4% DMSO (as a control) and this concentration was maintained with XL5, XL5-PROTACs XL5-VHL, XL5-VHL-2, XL5-CRBN, or XL5-IAP, and E3 ligands VHL-Ac, thalidomide (Selleckchem, catalog NO. S1193), or IAP-Bz at 10 μM, 20 μM, 30 μM or 40 μM concentration. After 48 hours, 0.35 mg/mL MTT was added for 4 hours of incubation. Stop solution (40% DMF, 10% SDS (W/V), 25 mM HCl, 2.5% acetic acid in H2O) was added to the cells and incubated overnight. Absorbance at 570 nm was measured by using CLARIOstar (BMG LABTECH).

HCT116 WT cells = experiment: MTT cell metabolism / cell viability assay in HCT116 WT; assay type: cell-based; conditions: read-out: XL5-VHL-2 Sensitivity (IC50, μM) Cell viability assay
Experimental: as §1
as §2, with “After 48 hours, 0.35 mg/mL MTT was added for 4 hours of incubation. Stop solution (40% DMF, 10% SDS (W/V), 25 mM HCl, 2.5% acetic acid in H2O) was added to the cells and incubated overnight.” left out

MM.1S cells = experiment: MTT cell viability assay in MM.1S; assay type: cell-based; conditions: read-out: XL5-VHL-2 Sensitivity (IC50, μM) Cell viability assay
Experimental: The mass spectra (upper panel) were deconvoluted from the UV peak (lower panel) indicated with a black arrow. […] Viability is calculated as (λ570)sample/(λ570)control×100(%). […] Immunoprobing for cleaved caspase-9 and hRpn13 was done separately with re-probing for β-actin. […] A dashed line indicates the value […].

[1] = tested on: RPMI 8226 trRpn13-MM2 cells; experiment: MTT cell viability assay in RPMI 8226 trRpn13-MM2; assay type: cell-based; conditions: RPMI 8226 trRpn13-MM2, 48 hours, compared to WT
Experimental: FIGS. 11A-11C show hRpn13-Pru PROTACs with different linkers restrict cell viability in an hRpn13 Pru-dependent manner. RPMI 8226 WT (darker shades) or trRpn13-MM2 (lighter shades) cells were treated with the indicated concentration of XL5-VHL-2 (FIG. 11A), XL5-VHL-3 (FIG. 11A), XL5-VHL-4 (FIG. 11B) or XL5-VHL-5 (FIG. 11C) for 48 hours and cell metabolism measured by an MTT assay; data represent mean±SD of n=6 biological replicates. Viability is calculated as (λ570)sample/(λ570)control×100(%).

hRpn13 / hRpn13-Pru = experiment: Immunoblot of hRpn13 species in RPMI 8226 cell lysates; assay type: cell-based, human; conditions: RPMI 8226, 40 μM, 24 hours
Experimental: HCT116 WT, HCT116 trRpn13, RPMI 8226 or 293T cells were collected and washed with PBS followed by lysing in 1% Triton-TBS lysis buffer (50 mM Tris-HCl, pH 7.5, 150 mM NaCl, 1 mM PMSF) supplemented with protease inhibitor cocktail (Roche). Total protein concentration was determined by bicinchoninic acid (Pierce). Protein lysates were prepared in 1χ LDS (ThermoFisher, NP0007) buffer with 100 mM DTT and heating at 70° C. for 10 min, loaded onto 4-12% Bis-Tris polyacrylamide gels (Life Technologies), subjected to SDS-PAGE and transferred to Invitrolon polyvinylidene difluoride membranes (Life Technologies). The membranes were blocked in Tris-buffered saline with 0.1% Tween-20 (TBST) supplemented with 5% skim milk, incubated with primary antibody, washed in TBST, incubated with secondary antibody and washed extensively in TBST. Pierce™ ECL Western Blotting Substrate (32106; Thermo Fisher Scientific) or Amersham™ ECL™ Primer Western Blotting Detection Reagent (cytiva) was used for antibody signal detection.
To test whether the XL5-PROTACs cause ubiquitination and degradation of hRpn13, lysates from RPMI 8226 (FIG. 5C) cells treated with 40 μM XL5 orXL5-PROTAC compared to DMSO vehicle control were immunoprobed for hRpn13 and β-actin (loading control).

RPMI 8226 WT cells = experiment: Apoptosis by cleaved caspase-9 immunoblot in RPMI 8226 WT; assay type: cell-based; conditions: 40 μM PROTAC or 20 μM XL5-S2
Experimental: RPMI 8226 WT or trRpn13-MM2 (MM2) cells were treated with 40 μM XL5-VHL-2, 40 μM XL5-VHL-3 or DMSO (vehicle control) and the whole cell extract immunoprobed for hRpn13 or cleaved caspase-9 with β-actin as a loading control. A black asterisk indicates cleaved caspase-9 in the 2-min immunoblot for hRpn13, as hRpn13 was probed following cleaved caspase-9 and without stripping the membrane.
RPMI 8226 WT or trRpn13-MM2 cells were treated with 20 μM XL5-S2 or DMSO (vehicle control) and the whole cell extract immunoprobed for hRpn13 or cleaved caspase-9, with β-actin as a loading control. A black asterisk indicates cleaved caspase-9 in the 5-min immunoblot for hRpn13, as hRpn13 was probed following cleaved caspase-9 and without stripping the membrane.
HCT116 WT, HCT116 trRpn13, RPMI 8226 or 293T cells were collected and washed with PBS followed by lysing in 1% Triton-TBS lysis buffer (50 mM Tris-HCl, pH 7.5, 150 mM NaCl, 1 mM PMSF) supplemented with protease inhibitor cocktail (Roche). Total protein concentration was determined by bicinchoninic acid (Pierce). Protein lysates were prepared in 1χ LDS (ThermoFisher, NP0007) buffer with 100 mM DTT and heating at 70° C. for 10 min, loaded onto 4-12% Bis-Tris polyacrylamide gels (Life Technologies), subjected to SDS-PAGE and transferred to Invitrolon polyvinylidene difluoride membranes (Life Technologies). […]

SMILES: Cc1ncsc1-c1ccc([C@H](C)NC(=O)[C@@H]2C[C@@H](O)CN2C(=O)[C@@H](NC(=O)CCCCc2cn(-c3ccc(C(=O)Nc4cccc(/C=C(\C#N)C(=O)Nc5ccccc5C(=O)O)c4)cc3)nn2)C(C)(C)C)cc1 [XL5-VHL-2]
- metabolic activity / cell viability (MTT) (RPMI 8226 cells; RPMI 8226, 48 hours, up to 40 μM): hook effect and lost
- IC50 (RPMI 8226 cells; RPMI 8226, read-out: XL5-VHL-2 Sensitivity (IC50, μM) Cell viability assay): 4.2 ± 1 µM
- IC50 (HCT116 WT cells): 23.6 ± 4.7 µM
- IC50 (MM.1S cells): 5.9 ± 0.7 µM
- cell viability (MTT) [1]: loss of activity
- lower molecular weight hRpn13 species (hRpn13-Pru) level (hRpn13 / hRpn13-Pru): less hRpn13-Pru loss; also recorded: reduced in abundance
- higher molecular weight hRpn13 species characteristic of ubiquitination (hRpn13 / hRpn13-Pru; longer exposure): increase in higher molecular weight hRpn13 species
- apoptosis induction (cleaved caspase-9) (RPMI 8226 WT cells): poorer induction of cleaved caspase-9
